According to patent US9556217B2, “Amphiphilic compounds” (WISCONSIN ALUMNI RESEARCH FOUNDATION, priority 2012, dated 2017):

Target: T1, cytidine-5′-monophosphate-sialic acid transporter (CMP-Sia) (Mus musculus, UniProt Q61420)
T1 construct: GFP-His (C, cleaved yes); made in house; host or cells: Saccharomyces cerevisiae
T1 sequence (Q61420 1-336): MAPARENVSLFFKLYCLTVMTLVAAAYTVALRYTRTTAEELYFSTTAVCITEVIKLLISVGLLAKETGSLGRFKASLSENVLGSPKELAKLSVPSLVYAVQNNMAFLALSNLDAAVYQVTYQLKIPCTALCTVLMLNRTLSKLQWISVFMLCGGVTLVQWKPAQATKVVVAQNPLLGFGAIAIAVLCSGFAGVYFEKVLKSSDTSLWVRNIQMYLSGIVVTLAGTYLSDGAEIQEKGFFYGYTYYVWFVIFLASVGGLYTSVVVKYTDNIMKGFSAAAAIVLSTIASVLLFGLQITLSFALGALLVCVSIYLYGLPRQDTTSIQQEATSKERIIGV
Experiment: CMP-Sia gel filtration integrity
Set-up: species or system murine
Conditions: detergent at 0.042 wt %; 2 hours at 30° C.
Procedure: The promising behavior manifested by GDN in terms of the stability of bR and the R. capsulatus superassembly prompted the examining this amphiphile with another membrane protein, the murine cytidine-5′-monophosphate-sialic acid transporter (CMP-Sia) (Newstead et al., Proc. Natl. Acad. Sci. USA 2007, 104, 13936-13941). The protein was initially extracted from S. cereviseae membranes with 1% DDM and isolated in buffer containing 0.03% DDM. The final purified protein (6 mg/mL) was diluted 1:100 into solutions containing DDM or GDN at 0.042 wt % (which corresponds to CMC+0.033 wt % for DDM and CMC+0.04 wt % for GDN). The DDM- and GDN-solubilized CMP-Sia were analyzed by gel filtration before and after incubation for 2 hours at 30° C. (FIG. 5a, b).
Protein integrity was assessed using the procedure reported by Chae and coworkers (Nat. Methods 2010, 7, 1003-1008) using CMP-Sia instead of SQR.
CMP-Sia and GlpG were expressed as fusion proteins with a C-terminal GFP-His tag in Saccharomyces cerevisiae and Escherichia coli respectively. All steps were carried out at 4° C. Membranes containing CMP-Sia and GlpG were resuspended in PBS, 10 mM imidazole pH 8.0, 150 mM NaCl, 10% glycerol and solubilized in 1% DDM for 1 hour with mild agitation. Supernatant containing DDM-solubilized protein was harvested after ultracentrifugation at 100,000 g for 45 min. […]

SMILES | CMP-Sia integrity after incubation (gel filtration) [%]
CCCCCCCCCCCCO[C@@H]1O[C@H](CO)[C@@H](O[C@H]2O[C@H](CO)[C@@H](O)[C@H](O)[C@H]2O)[C@H](O)[C@H]1O [DDM, dodecyl-β-D-maltoside, reference compound] | ~50
C[C@@H]1CC[C@@]2(OC1)O[C@H]1C[C@H]3[C@@H]4CC=C5C[C@@H](OCCC(CO[C@@H]6OC(CO)[C@@H](O[C@H]7OC(CO)[C@@H](O)C(O)C7O)C(O)C6O)CO[C@@H]6OC(CO)[C@@H](O[C@H]7OC(CO)[C@@H](O)C(O)C7O)C(O)C6O)CC[C@]5(C)[C@H]4CC[C@]3(C)[C@@H]1[C@@H]2C (some centres unmarked) [GDN, glyco-diosgenin] | > 90
